Test results: PubChem BioAssay (NCI)
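The compound was tested at five concentrations on cells cultured in 96-well plates, with a 48-hour exposure period. GI50 = concentration required for 50% inhibition of growth. At the TGI there is no net growth.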

Legend:
Experiment in all cases: DTP human tumour cell line panel, 48 h
[1] = system: 786-0 renal
[2] = system: A549 NSCLC
[3] = system: ACHN renal
[4] = system: BT-549 breast
[5] = system: CAKI-1 renal
[6] = system: COLO 205 colon
[7] = system: DU-145 prostate
[8] = system: EKVX NSCLC
[9] = system: HCC-2998 colon
[10] = system: HCT-116 colon
[11] = system: HCT-15 colon
[12] = system: HL-60(TB) leukemia
[13] = system: HOP-62 NSCLC
[14] = system: HOP-92 NSCLC
[15] = system: HS 578T breast
[16] = system: IGROV1 ovarian
[17] = system: K-562 leukemia
[18] = system: KM12 colon
[19] = system: LOX IMVI melanoma
[20] = system: M14 melanoma
[21] = system: MCF7 breast
[22] = system: MDA-MB-231 breast
[23] = system: MDA-MB-435
[24] = system: NCI-H23 lung
[25] = system: NCI-H460 lung
[26] = system: NCI-H522 lung
[27] = system: NCI/ADR-RES ovarian
[28] = system: OVCAR-3 ovarian
[29] = system: OVCAR-4 ovarian
[30] = system: OVCAR-5 ovarian
[31] = system: OVCAR-8 ovarian
[32] = system: PC-3 prostate
[33] = system: RPMI-8226 leukemia
[34] = system: RXF 393 renal
[35] = system: SF-268 CNS
[36] = system: SF-295 CNS
[37] = system: SF-539 CNS
[38] = system: SK-MEL-2 melanoma
[39] = system: SK-MEL-28 melanoma
[40] = system: SK-MEL-5 melanoma
[41] = system: SK-OV-3 ovarian
[42] = system: SN12C renal
[43] = system: SNB-19 CNS
[44] = system: SNB-75 CNS
[45] = system: SR leukemia
[46] = system: SW-620 colon
[47] = system: T-47D breast
[48] = system: TK-10 renal
[49] = system: U251 CNS
[50] = system: UACC-257 melanoma
[51] = system: UACC-62 melanoma
[52] = system: UO-31 renal

Q: Which results are given for `Nc1ccccc1C#C/C=C\C#Cc1ccccc1C#CCO`?
A: GI50 [1]: 6.39 µM; TGI [1]: 17.8 µM; GI50 [2]: 11.2 µM; TGI [2]: > 50 µM; GI50 [3]: 6.11 µM; TGI [3]: 18.3 µM; GI50 [4]: 10.9 µM; TGI [4]: 41.6 µM; GI50 [5]: 4.1 µM; TGI [5]: 18 µM; GI50 [6]: 11.8 µM; TGI [6]: 31.6 µM; GI50 [7]: 15.8 µM; TGI [7]: > 50 µM; GI50 [8]: 12 µM; TGI [8]: > 50 µM; GI50 [9]: 2.95 µM; TGI [9]: 10.6 µM; GI50 [10]: 8.3 µM; TGI [10]: 24.7 µM; GI50 [11]: 4.92 µM; TGI [11]: 18.3 µM; GI50 [12]: 8.49 µM; TGI [12]: > 50 µM; GI50 [13]: 8.35 µM; TGI [13]: > 50 µM; GI50 [14]: 11.9 µM; TGI [14]: > 50 µM; GI50 [15]: 8.89 µM; TGI [15]: 27.8 µM; GI50 [16]: 0.382 µM; TGI [16]: > 50 µM; GI50 [17]: 11.1 µM; TGI [17]: > 50 µM; GI50 [18]: 1.81 µM; TGI [18]: 7.8 µM; GI50 [19]: 1.36 µM; TGI [19]: 8.97 µM; GI50 [20]: 7.68 µM; TGI [20]: 26 µM; GI50 [21]: 7.87 µM; TGI [21]: > 50 µM; GI50 [22]: 7.73 µM; TGI [22]: 28.7 µM; GI50 [23]: 1.51 µM; TGI [23]: 4.21 µM; GI50 [24]: 1.83 µM; TGI [24]: 6.9 µM; GI50 [25]: 8.73 µM; TGI [25]: 22 µM; GI50 [26]: 11.8 µM; TGI [26]: 28.2 µM; GI50 [27]: 6.17 µM; TGI [27]: 21.4 µM; GI50 [28]: 6.63 µM; TGI [28]: 18.5 µM; GI50 [29]: 14 µM; TGI [29]: 41.4 µM; GI50 [30]: 16.8 µM; TGI [30]: > 50 µM; GI50 [31]: 8.36 µM; TGI [31]: 27.1 µM; GI50 [32]: 27.5 µM; TGI [32]: > 50 µM; GI50 [33]: 24.3 µM; TGI [33]: > 50 µM; GI50 [34]: 9.25 µM; TGI [34]: 32.1 µM; GI50 [35]: 7.6 µM; TGI [35]: 24.3 µM; GI50 [36]: 6.8 µM; TGI [36]: 16.7 µM; GI50 [37]: 10.8 µM; TGI [37]: 27.1 µM; GI50 [38]: 8.35 µM; TGI [38]: 24.2 µM; GI50 [39]: 15.3 µM; TGI [39]: > 50 µM; GI50 [40]: 6.1 µM; TGI [40]: 14.1 µM; GI50 [41]: 12.1 µM; TGI [41]: 27 µM; GI50 [42]: 9.46 µM; TGI [42]: 27.4 µM; GI50 [43]: 23.9 µM; TGI [43]: > 50 µM; GI50 [44]: 18 µM; TGI [44]: 42.1 µM; GI50 [45]: 0.405 µM; TGI [45]: > 50 µM; GI50 [46]: 4.4 µM; TGI [46]: 35.8 µM; GI50 [47]: 16.9 µM; TGI [47]: > 50 µM; GI50 [48]: 11.8 µM; TGI [48]: 27.5 µM; GI50 [49]: 7.41 µM; TGI [49]: 18.7 µM; GI50 [50]: 11.4 µM; TGI [50]: 45.2 µM; GI50 [51]: 5.69 µM; TGI [51]: 15.3 µM; GI50 [52]: 6.69 µM; TGI [52]: > 50 µM
